Read-outs that look alike come from different tables or passages of the source.
Legend:
[1] = test system: Trypanosoma brucei brucei trypomastigotes, suramin-sensitive strain (Squib 427); assay: T. b. brucei growth/viability assay (resazurin); type: cell-based; settings: 3 days
Protocol: After 3 days, parasite growth was assessed fluorimetrically following the addition of resazurin. After 24 h at 37 °C, fluorescence was measured (λex = 550 nm, λem = 590 nm). The results were expressed as a percentage reduction in parasite growth/viability compared to control wells, and a 50% inhibitory concentration (IC50) was calculated.

[2] = test system: Trypanosoma cruzi (Tulahuen CL2 β-galactosidase) amastigotes in hMRC-5SV2 cells; assay: T. cruzi intracellular amastigote assay (β-galactosidase/CPRG); type: cell-based; settings: intracellular amastigotes, 7 days; for IC50: read-out: IC50 T. cruzi intramacrophage amastigotes (converted)
Protocol: A nifurtimox-sensitive strain (Tulahuen CL2 β-galactosidase) in human lung fibroblast hMRC-5SV2 cells was incubated for 7 days in 96-well plates with five concentrations of compound (64, 16, 4, 1, and 0.25 μM). The parasitic burden was evaluated through the activity of the enzyme β-galactosidase on a specific chlorophenol red ß-D-galactopyranoside (CPRG) substrate. Live parasites converted the yellow-orange CPRG substrate into the red chromophore chlorophenol red, yielding a dark-red solution, which could be quantitatively measured at 540 nm after 4 h of incubation at 37 °C. The results were expressed as a percentage reduction in parasite growth/viability compared to control wells, and an IC50 was calculated.

[3] = test system: L. infantum (MHOM/MA(BE)/67) amastigotes in primary peritoneal mouse macrophages; assay: L. infantum intramacrophage amastigote assay (microscopic burden); type: cell-based, Leishmania infantum; settings: 5 days, mouse macrophages as host
Protocol: L. infantum (MHOM/MA(BE)/67 strain) amastigote were incubated for 5 days in 96-well plates with five concentrations of compound (64, 16, 4, 1, and 0.25 μM). Primary peritoneal mouse macrophages were used as host cells. Parasite burdens (i.e., the number of amastigotes per macrophage) were microscopically assessed. The results were expressed as a percentage reduction in parasite burden compared to untreated control wells, and an IC50 was calculated.

in vitro = settings: human, CC50 hMRC-5 (cytotoxicity)
Protocol: (§1) The cytotoxicity of compounds was evaluated toward human diploid embryonic lung fibroblast hMRC-5SV2 cells, derived from fetal lung tissue and first described in 1970. hMRC-5SV2 cells were cultured in 96-well plates with five concentrations of the compound (64, 16, 4, 1, and 0.25 μM). After 3 days of incubation, the cell viability was assessed fluorimetrically after the addition of resazurin, and fluorescence was measured (λex = 550 nm, λem = 590 nm). The results were expressed as a percentage reduction in cell growth/viability compared to control wells, and a 50% cytotoxic concentration (CC50) was calculated. The reference cytotoxic drugs were tamoxifen or ivermectin. Additionally, toxicity toward mouse macrophages was qualitatively observed. Three concentrations were included (64, 16, and 4 µM), and the range of toxicity was ranked from the least toxic to the most toxic compound.

[4] = test system: WT LV9 L. donovani intramacrophage amastigotes; assay: L. donovani intramacrophage amastigote assay; type: cell-based, Leishmania donovani; settings: WT LV9, ± SD in Tables S5/S6, read-out: IC50 L. donovani intramacrophage amastigotes
[5] = test system: human diploid embryonic lung fibroblast hMRC-5SV2 cells; assay: in vitro
Protocol: as §1

macrophages = settings: bracketed value after the intramacrophage IC50 (Table S5); Table S6
[6] = Trypanosoma cruzi, TULAHUEN, 168 h
[7] = Leishmania infantum, Macrophage, 120 h

Compound | IC50 [2] | IC50 [3] | IC50 [1] | CC50 [5] | also measured
COc1ccc(C2CC(=O)CC(c3ccc(OC)cc3)[S+]2[O-])cc1 (mixture of isomers) [3d, (±)-trans-2,6-Di-(p-anisyl)-4H-tetrahydrothiopyran-4-one 1-oxide] | 8.9 µM | ≥ 64 µM | – | – | IC50 ([1]; Trypanosoma brucei, 72 h): 3.1 µM; CC50 at 3 days (in vitro): 32.2 µM; IC50 [4]: 50.2 µM
O=C1CC(c2ccccc2Cl)SC(c2ccccc2Cl)C1 (racemic) [2e] | > 64 µM | 32 µM | > 64 µM | > 64 µM | IC50 [4]: 14.2 ± 1.3 µM; observed macrophage death / lysis observed at (macrophages): > 150 µM
O=C1C[C@H](c2ccccn2)S[C@@H](c2ccccn2)C1 (racemic) [2w] | ≥ 64 µM | ≥ 64 µM | – | – | IC50 ([1]; Trypanosoma brucei, 72 h): 26.1 µM; IC50 [2, 6]: > 64 µM; IC50 [3, 7]: > 64 µM; CC50 at 3 days (in vitro): > 64 µM; CC50 ([5]; human, 3 days): ≥ 64 µM; IC50 ([4]; Leishmania donovani): > 100 µM
COc1ccc([C@H]2CC(=O)C[C@H](c3ccc(OC)cc3)S2)cc1 (relative stereo) [2d] | ≥ 64 µM | ≥ 64 µM | ≥ 64 µM | – | IC50 ([1]; Trypanosoma brucei, 72 h): > 64 µM; IC50 [2, 6]: > 64 µM; IC50 [3, 7]: > 64 µM; CC50 at 3 days (in vitro): > 64 µM; CC50 ([5]; human, 3 days): ≥ 64 µM
COc1ccc(/C=C/C(=O)/C=C/c2ccc(OC)cc2)cc1 [1d] | – | ≥ 64 µM | 1.24 µM | – | IC50 ([1]; Trypanosoma brucei, 72 h): 1.2 µM; IC50 [2, 6]: 10.7 µM; IC50 [3, 7]: > 64 µM; CC50 at 3 days (in vitro): > 64 µM; CC50 ([5]; human, 3 days): ≥ 64 µM
COc1cc(/C=C/C(=O)/C=C/c2ccc(O)c(OC)c2)ccc1O [1i] | 1 µM | ≥ 32 µM | ≤ 0.3 µM | 1.1 µM | –
C=CCOc1ccc(/C=C/C(=O)/C=C/c2ccc(OCC=C)c(OC)c2)cc1OC [1k] | 36.9 µM | > 64 µM | 6.8 µM | > 64 µM | –
COc1ccc(O)c(/C=C/C(=O)/C=C/c2cc(OC)ccc2O)c1 [1l] | – | – | – | – | IC50 ([1]; Trypanosoma brucei, 72 h): ≤ 0.3 µM; IC50 [2, 6]: 1 µM; IC50 [3, 7]: ≥ 32 µM; CC50 at 3 days (in vitro): 1.9 µM
O=C(/C=C/c1ccccc1)/C=C/c1ccc(C(F)(F)F)cc1 [1’b] | 33.8 µM | > 64 µM | 2.2 µM | > 64 µM | –
CN(C)c1ccc(/C=C/C(=O)/C=C/c2ccc(C(F)(F)F)cc2)cc1 [1’c] | 31.7 µM | 8 µM | 9.2 µM | > 64 µM | –
N#Cc1ccc(/C=C/C(=O)/C=C/c2ccccc2)cc1 [1’l] | 3.3 µM | 7 µM | ≤ 0.2 µM | 38.7 µM | –
O=C(/C=C/c1ccccc1)/C=C/c1ccccn1 [1’n] | 0.5 µM | 1.3 µM | ≤ 0.2 µM | 1.5 µM | –
O=C(/C=C/c1ccccc1)/C=C/c1ccncc1 [1’o] | ≤ 0.2 µM | 0.5 µM | ≤ 0.2 µM | 2 µM | –
CN(C)c1ccc(/C=C/C(=O)/C=C/c2ccc(F)cn2)cc1 [1’q] | > 64 µM | 32.5 µM | 13.3 µM | 32.2 µM | –
O=C(/C=C/c1ccccc1)/C=C/c1ncccn1 [1’r] | ≤ 0.2 µM | 0.4 µM | ≤ 0.2 µM | 1.6 µM | –
O=C1C[C@@H](c2ccccc2Cl)S[C@@H](c2ccccc2Cl)C1 [2’e] | 35 µM | > 64 µM | 37.6 µM | > 64 µM | –
O=C1C[C@@H](c2ccc(F)cc2)S[C@@H](c2ccc(F)cc2)C1 [2’g] | 1.4 µM | 2.1 µM | 2.1 µM | 6.4 µM | –
COc1cc([C@@H]2CC(=O)C[C@H](c3cc(OC)c(C)cc3OC)S2)c(OC)cc1C [2’o] | 37.2 µM | 5.1 µM | 32.5 µM | > 64 µM | –
COc1cc(Br)c(OC)c([C@@H]2CC(=O)C[C@H](c3cc(OC)cc(Br)c3OC)S2)c1 [2’q] | 17.1 µM | 8.6 µM | 32.2 µM | > 64 µM | –
COc1ccc(C2CC(=O)CC(c3ccc(OC)cc3)S2)cc1 (stereo not shown) [2′d] | ≥ 64 µM | ≥ 64 µM | ≥ 64 µM | – | IC50 ([1]; Trypanosoma brucei, 72 h): > 64 µM; IC50 [2, 6]: > 64 µM; IC50 [3, 7]: > 64 µM; CC50 at 3 days (in vitro): > 64 µM; CC50 ([5]; human, 3 days): ≥ 64 µM; IC50 ([4]; Leishmania donovani): > 100 µM
O=C1CC(c2ccccn2)SC(c2ccccn2)C1 (stereo not shown) [2′w] | ≥ 64 µM | ≥ 64 µM | 29.1 µM | – | IC50 ([1]; Trypanosoma brucei, 72 h): 29.6 µM; IC50 [2, 6]: > 64 µM; IC50 [3, 7]: > 64 µM; CC50 at 3 days (in vitro): > 64 µM; CC50 ([5]; human, 3 days): ≥ 64 µM; IC50 ([4]; Leishmania donovani): > 100 µM
COc1ccc(C2CC(=O)CC(c3ccc(OC)cc3)[S+]2[O-])cc1 (stereo not drawn) [3′d, (anti)- and (syn)-cis-2,6-Di-(p-anisyl)-4H-tetrahydro-thiopyran-4-one 1-oxides] | ≥ 64 µM | ≥ 64 µM | 2.3 µM | – | IC50 T. cruzi intramacrophage amastigotes [2]: inactive; IC50 L. infantum intramacrophage amastigotes [3]: inactive; CC50 ([5]; human, 3 days): ≥ 64 µM; IC50 [4]: > 100 µM
CC1CS(=O)(=O)CCN1/N=C/c1ccc([N+](=O)[O-])o1 (stereo not shown) [Nifurtimox, nifurtimox, reference compound] | – | – | – | – | IC50 [2, 6]: 0.845 ± 0.2 µM
Cc1ccc(C(=O)Nc2ccc(S(=O)(=O)O)c3cc(S(=O)(=O)O)cc(S(=O)(=O)O)c23)cc1NC(=O)c1cccc(NC(=O)Nc2cccc(C(=O)Nc3cc(C(=O)Nc4ccc(S(=O)(=O)O)c5cc(S(=O)(=O)O)cc(S(=O)(=O)O)c45)ccc3C)c2)c1 [Suramin, suramin, reference compound] | – | – | 0.03 µM | – | –
CC/C(=C(\c1ccccc1)c1ccc(OCCN(C)C)cc1)c1ccccc1 [Tamoxifen, tamoxifen, reference compound] | – | – | – | – | CC50 at 3 days (in vitro): 9.12 µM
O=C(Cn1ccnc1[N+](=O)[O-])NCc1ccccc1 [benznidazole, reference compound] | – | – | – | – | IC50 [2, 6]: 1.93 µM
CC[C@H](C)[C@H]1O[C@]2(CC[C@@H]1C)C[C@@H]1C[C@@H](C/C=C(\C)[C@@H](O[C@H]3C[C@H](OC)[C@@H](O[C@H]4C[C@H](OC)[C@@H](O)[C@H](C)O4)[C@H](C)O3)[C@@H](C)/C=C/C=C3\CO[C@@H]4[C@H](O)C(C)=C[C@@H](C(=O)O1)[C@]34O)O2 [ivermectine, ivermectin, reference compound] | – | – | – | – | CC50 ([5]; read-out: CC50 hMRC-5 (cytotoxicity), human hMRC-5SV2 fibroblasts, 3 days): 3.5 µM
CCCCCCCCCCCCCCCCOP(=O)([O-])OCC[N+](C)(C)C [miltefosine, Hexadecyl-Phosphoryl-Choline, reference compound] | – | – | – | – | IC50 ([4]; Leishmania donovani): 19.1 ± 0.1 µM

— publication PMC11013284, “Chemoselective Synthesis and Anti-Kinetoplastidal Properties of 2,6-Diaryl-4H-tetrahydro-thiopyran-4-one S-Oxides: Their Interplay in a Cascade of Redox Reactions from Diarylideneacetones” (Molecules, 2024)
